One compound from US20090068255A1, “USE OF MATRIX METALLOPROTEINASE INHIBITORS IN SKIN CARE” (priority 2007, published 2009) can be followed below.

Test [1] has as its system female subjects 40-65 years of age with mild to moderate skin aging. The experiment in a line: Double-blind, placebo-controlled, randomized 16-week clinical study; dermatologist assessment of individual facial skin appearance parameters (scale 0-9). The test is classed as in vivo, human. The following applies: 16 weeks. Here is the method:
Photoaging of the skin typically manifests itself as worsening appearance of the skin, including an increased appearance of mottled hyperpigmentation, wrinkles, coarseness of skin, redness, and pores. In this study, the MMP inhibitor,
was evaluated in female subjects 40-65 years of age with mild to moderate skin aging to determine its benefit on the appearance of aging.
The study was designed as a double-blind, placebo-controlled, randomized 16-week clinical study to evaluate the benefit of the MMP inhibitor,
in reducing the appearance of aging. Subjects enrolled in the study were between 40-65 years of age with mild to moderate skin age scores. A randomization table was used to determine which subjects would receive the study cream and which would receive the placebo cream. Subjects were instructed to apply the assigned cream to their face twice a day (once in the morning and once in the evening) after their face was washed and dried. A pea-sized drop of the test article was applied to each quadrant of the face to form a thin layer over the entire face. Follow-up visits were scheduled at 2, 4, 8, 12, and 16 weeks after the cream application was started.
Subjects were instructed to apply the test or placebo cream to the face twice daily (once in the morning and once in the evening) over the entire 16 week study period. […]
The effect of the MMP inhibitor on the subject's skin was assessed using the Physician Global Assessment of facial skin appearance and the assessment of the following individual skin appearance parameters on a scale from 0 to 9: fine wrinkling, mottled hyperpigmentation, age spots, tactile roughness, coarse wrinkling, telangiectasia, pore size, sallow tone, and sag. […]
A Physician Global Assessment of facial skin appearance using the Griffiths scale (0-8) was performed at all study visits. […] An assessment of individual skin parameters including fine wrinkling, mottled hyperpigmentation, age spots, tactile roughness, coarse wrinkling, redness, pore size, sollowness, and sag was scored on a scale from 0-9 at all study visits based on the following table: […]

For test [2] the test system is unchanged. The experiment in a line: Profilometry of silicone replicas of the crow's feet area in the 16-week clinical study. It is filed as in vivo, human. The following applies: replicas at day 0, week 8, week 16, p<0.05. The protocol:
The effect of the MMP inhibitor on the subject's skin was assessed using the Physician Global Assessment of facial skin appearance and the assessment of the following individual skin appearance parameters on a scale from 0 to 9: fine wrinkling, mottled hyperpigmentation, age spots, tactile roughness, coarse wrinkling, telangiectasia, pore size, sallow tone, and sag. The cosmetic appearance of telangiectasia may be perceived as increased facial redness. Other criteria were also used including profilometry of crow's feet region using silicone replicas.
Silicone replicas of the crow's feet area (“profilometry”) were made at day 0, week 8, and week 16.
For the silicone replicas, the data used in the statistical analyses was the change from baseline. Within-treatment analysis of the skin replica parameters changes from baseline were evaluated using Student's t-test for paired data. Between-treatment analyses were conducted utilizing analysis of covariance with the baseline value as the covariate.

“Also recorded” adds a separate entry of the source.

In the case of `O=C(NCc1ccc(-c2ccccc2)cc1)c1occc(=O)c1O` [MMP inhibitor], the “appearance of telangiectasia (redness), change from baseline relative to the placebo formulation” value in test [1] (cream of Example 27 (0.20% MMP inhibitor) applied to the face twice daily, p<0.05 vs placebo) was “reduce the appearance of telangiectasia”. For the same compound, the “appearance of pore size, active vs placebo group” value in test [1] (cream of Example 27 applied to the face twice daily, Proc GLM time x treatment interaction p-value 0.02) is reported as “improved appearance; also recorded: trending toward improvement”. Also, the “appearance of coarse wrinkles, active vs placebo group” value in test [1] (cream of Example 27 applied to the face twice daily, Proc GLM time x treatment interaction p-value 0.06) is “improved appearance of coarse wrinkles; also recorded: trending toward improvement”. Besides, the “coarse wrinkle depth and roughness by profilometry of silicone replica, treatment vs placebo group” value in test [2] was “significant improvement; also recorded: consistent with the improvement of coarse wrinkle scores”.
